From ChEMBL document CHEMBL1201862, “PubChem BioAssay data set” (2004)
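Where inhibition never reached the appropriate level, the endpoint shown equals the highest concentration tested. Otherwise, values were interpolated linearly from a five-concentration, 48-hour dose response in 96-well plates. The concentration for 50% growth inhibition is given as GI50.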 Calls of active or inactive are those of the source. No stated cut-off is given here; in the data, active = GI50 up to about 1.1 µM and inactive = higher.

Tests used:
Experiment in all cases: DTP human tumour cell line panel, 48 h
[1] = system: NCI-H460
[2] = system: OVCAR-5
[3] = system: A549
[4] = system: RXF 393
[5] = system: TK-10
[6] = system: ACHN
[7] = system: SK-OV-3
[8] = system: MOLT-4
[9] = system: T47D
[10] = system: U-251
[11] = system: MDA-MB-231
[12] = system: IGROV-1
[13] = system: HCT-116
[14] = system: OVCAR-4
[15] = system: SR
[16] = system: MDA-N
[17] = system: Malme-3M
[18] = system: SNB-19
[19] = system: LOX IMVI
[20] = system: NCI/ADR-RES

Measured: GI50

COC(=O)CC1c2ccccc2N2C(=O)Cc3c([nH]c4ccccc34)C12 (stereo not given)
inactive: [1] > 100 µM | [2] > 100 µM | [3] > 100 µM | [4] > 100 µM | [5] > 100 µM | [6] > 100 µM | [7] > 100 µM | [8] > 100 µM | [9] > 100 µM | [10] > 100 µM | [11] > 100 µM | [12] > 100 µM | [13] > 100 µM | [14] 31.4 µM | [15] > 100 µM | [16] > 100 µM | [17] 66.5 µM | [18] > 100 µM | [19] > 100 µM | [20] > 100 µM
